Source: patent publication US8680065B2, “Oligonucleotides of human endogenous retrovirus 9 (ERV-9) long terminal repeat (LTR) and methods of use” (The United States of America, as represented by the …, priority 2008, dated 2014)

Key:
[1] = test system: MDA-231 cells (a breast cancer cell line); test: Cancer cell proliferation, oligonucleotide in LIPOFECTAMINE, 48 hours, direct cell counting; assay type: cell-based, human; conditions: oligonucleotide 10, 20 or 30 μg/ml, P<0.05
[2] = test system: human primary cells (keratinocytes, lymphocytes, monocytes); test: Proliferation of normal human primary cells, Example 3, summary; assay type: cell-based; conditions: 20 μg/ml, 48 hours
Method: To determine whether the inhibitory effect of ERV-9 U3 oligonucleotides is specific to cancer cells, human primary keratinocytes (FIG. 13), lymphocytes (FIG. 14), or monocytes (FIG. 15) were treated with ERV-9 U3 sense or antisense oligonucleotide and cell proliferation was evaluated. Cells (4×10^4) were transfected with ERV-9 U3 sense or antisense oligonucleotide (SEQ ID NOs: 1 and 2, respectively) formulated in LIPOFECTAMINE™ at a concentration of 20 μg/ml. GFP oligonucleotide was used as non-specific phosphorothioate oligonucleotide control. After 48 hours, cell proliferation was assessed by direct cell counting. Cell proliferation levels were expressed relative to GFP control.

HT1080 tumor xenografts = test: Growth of human tumor xenografts in SCID mice; assay type: in vivo; conditions: HT1080 xenograft; for tumor growth, combination treatment with VP16: 50 μg oligonucleotide and 50 ng VP16 once per day; for tumor burden compared to treatment with G3139: 50 μg oligonucleotide per mouse; for tumor growth (tumor size): 50 μg oligonucleotide per mouse injected around tumor once per day
Method: (§1) FIG. 18A is a pair of graphs showing the effect of sense and antisense ERV-9 U3 oligonucleotides (SEQ ID NOs: 1 and 2, respectively) on growth of MDA-231 (top) and HT1080 (bottom) tumor xenografts in SCID mice. Mice were injected with 50 μg of the indicated oligonucleotides once per day for 14 days (MDA-231) or 7 days (HT1080).
(§2) FIG. 18B is a pair of graphs showing the effect of sense and antisense ERV-9 U3 oligonucleotides (SEQ ID NOs: 1 and 2, respectively) on growth of MDA-231 (top) and HT1080 (bottom) tumor xenografts in SCID mice in combination with VP16. Mice were injected with 50 μg of the indicated oligonucleotides and 50 ng of VP16 once per day for 24 days (MDA-231) or 14 days (HT1080).
(§3) CB-17 prkdc(SCID) male, 4- to 6-week-old SCID mice were purchased from the Jackson Laboratory. Cultured cells (MDA-231 or HT1080 cells) were washed with and resuspended in serum-free media. The suspension (2×10^6 cells in 0.2 ml per mouse) was then injected into the chest area of the mice. The mice were monitored by measuring tumor growth and body weight and by general clinical observation. When tumor size reached approximately 4×4 mm, tumor-bearing mice were randomly divided into multiple treatment and control groups (five mice per group). All oligonucleotides, dissolved in PBS, were injected into the surrounding area of the tumor at doses of 50 μg per mouse (approximately 2.5 mg/kg), one time per day, 5 days/week until the tumor size of the control injected tumors reached about 20×20 mm (2×2 cm). The tumors were dissected from mice and weighed with the investigator blinded as to the treatment group. In combination therapy, 50 μg of the oligonucleotide (approximately 2.5 mg/kg) and 50 ng of VP16 (approximately 2.5 μg/kg), both dissolved in PBS, were injected together (one time per day, 5 days/week) into the surrounding area of the tumor to all groups.

MDA-231 tumor xenografts = test: Growth of human tumor xenografts in SCID mice; assay type: in vivo; conditions: MDA-231 xenograft; for tumor growth, combination treatment with VP16: 50 μg oligonucleotide and 50 ng VP16 once per day; for tumor burden compared to treatment with G3139: 50 μg oligonucleotide per mouse; for tumor growth (tumor size): 50 μg oligonucleotide per mouse injected around tumor once per day
Method: as §1, §2, §3

Row | Substance | cell proliferation relative to GFP oligonucleotide [1] | cell proliferation of human primary cells relative to control GFP oligonucleotide [2] | cell proliferation of human primary cells relative to control GFP oligonucleotide ([2]; listed as ERV-9 U3 antisense oligonucleotide) | tumor growth, combination treatment with VP16 (HT1080 tumor xenografts) | tumor burden compared to treatment with G3139 (HT1080 tumor xenografts) | tumor growth (tumor size) (HT1080 tumor xenografts) | tumor growth, combination treatment with VP16 (MDA-231 tumor xenografts) | tumor burden compared to treatment with G3139 (MDA-231 tumor xenografts) | tumor growth (tumor size) (MDA-231 tumor xenografts) | cell proliferation of human primary cells relative to control GFP oligonucleotide ([2]; listed as ERV-9 U3 sense oligonucleotide)
1 | U3AS: ERV-9 LTR U3 antisense oligonucleotide CTGATTGGTGTGTTTACAAACCTTGAG, phosphorothioate internucleoside linkages at each position (all phosphorothioate, sugars by position and methylation of C not given here) [Oligo U3AS] | inhibited cell proliferation better than GFP control oligonucleotide at all three oligonucleotide concentrations | neither U3 sense nor antisense oligonucleotides had an effect on the proliferation of human primary cells | did not significantly alter cell proliferation of human primary cells, relative to control GFP oligonucleotide | inhibited tumor growth when co-administered with VP16 better than GFP oligonucleotide or G3139 antisense oligonucleotide | had reduced tumor burden for both MDA-231 and HT1080 tumors, although this did not reach statistical significance | inhibited tumor growth better than GFP oligonucleotide or G3139 antisense oligonucleotides | inhibited tumor growth when co-administered with VP16 better than GFP oligonucleotide or G3139 antisense oligonucleotide | had reduced tumor burden for both MDA-231 and HT1080 tumors, although this did not reach statistical significance | inhibited tumor growth better than GFP oligonucleotide or G3139 antisense oligonucleotides | –
2 | U3S: ERV-9 LTR U3 sense oligonucleotide CTCAAGGTTTGTAAACACACCAATCAG, phosphorothioate internucleoside linkages at each position (all phosphorothioate, sugars by position and methylation of C not given here) [Oligo U3S] | inhibited cell proliferation better than GFP control oligonucleotide at all three oligonucleotide concentrations | neither U3 sense nor antisense oligonucleotides had an effect on the proliferation of human primary cells | – | inhibited tumor growth when co-administered with VP16 better than GFP oligonucleotide or G3139 antisense oligonucleotide | had reduced tumor burden for both MDA-231 and HT1080 tumors, although this did not reach statistical significance | inhibited tumor growth better than GFP oligonucleotide or G3139 antisense oligonucleotides | inhibited tumor growth when co-administered with VP16 better than GFP oligonucleotide or G3139 antisense oligonucleotide | had reduced tumor burden for both MDA-231 and HT1080 tumors, although this did not reach statistical significance | inhibited tumor growth better than GFP oligonucleotide or G3139 antisense oligonucleotides | did not significantly alter cell proliferation of human primary cells, relative to control GFP oligonucleotide
